Source: patent publication US10794932B2, “Biosensor for the detection of a biological target, and method for manufacturing the same” (The Governing Council of The University of Toronto, priority 2016, dated 2020)
Values joined by “and” are separate entries in the source; they are usually repeats but may differ in a detail not shown here. Identical values can stand only once.

Key:
TLR3 = target: T1, TLR3 (Mus musculus, UniProt Q99MB1); assay: TLR multiplex sensor, EIS film resistance before/after exposure (Example 5), TLR3 sensor; assay type: binding; conditions: exposure 20 minutes
T1 sequence (Q99MB1 26-905): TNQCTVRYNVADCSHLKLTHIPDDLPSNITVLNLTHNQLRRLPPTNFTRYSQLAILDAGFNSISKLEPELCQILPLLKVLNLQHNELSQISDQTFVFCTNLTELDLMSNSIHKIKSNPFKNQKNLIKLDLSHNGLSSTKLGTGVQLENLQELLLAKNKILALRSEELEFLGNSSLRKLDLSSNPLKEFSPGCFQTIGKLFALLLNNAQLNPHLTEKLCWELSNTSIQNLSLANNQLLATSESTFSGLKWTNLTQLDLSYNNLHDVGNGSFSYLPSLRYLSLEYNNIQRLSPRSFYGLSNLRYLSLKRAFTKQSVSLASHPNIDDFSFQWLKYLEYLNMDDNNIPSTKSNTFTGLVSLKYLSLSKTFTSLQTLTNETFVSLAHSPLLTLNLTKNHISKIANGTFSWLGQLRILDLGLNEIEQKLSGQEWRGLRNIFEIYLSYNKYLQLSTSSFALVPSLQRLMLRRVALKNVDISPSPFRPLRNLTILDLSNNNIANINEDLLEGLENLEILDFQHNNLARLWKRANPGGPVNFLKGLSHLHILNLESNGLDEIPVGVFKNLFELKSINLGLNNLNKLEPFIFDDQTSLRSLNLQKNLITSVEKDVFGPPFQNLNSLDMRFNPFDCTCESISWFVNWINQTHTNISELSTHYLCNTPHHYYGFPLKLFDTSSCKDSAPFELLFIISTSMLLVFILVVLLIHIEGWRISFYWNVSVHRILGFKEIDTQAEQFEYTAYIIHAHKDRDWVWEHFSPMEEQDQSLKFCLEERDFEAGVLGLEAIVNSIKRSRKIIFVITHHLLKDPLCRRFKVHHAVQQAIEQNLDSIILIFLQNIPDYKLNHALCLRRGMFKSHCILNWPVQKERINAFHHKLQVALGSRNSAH
Experimental: (§1) For each multiplex TLR sensor, 5 separate gold electrodes were used for binding TLR 1 to 5. The 5 modified electrodes/sensors were exposed to the analyte solution and evaluated one by one using potentiostats and electrochemical cells.
(§2) The preparation of each TLR biosensor was evaluated using EIS. It is understood that cyclic voltammetry as well as electrochemical impedance microscopy can also be used for monitoring the modification. […] Ethanolamine was then applied to deactivate unreacted LPA. Due to dissociation of unspecific absorbed TLR, the Rct dropped slightly. Experimental curves were evaluated using a model to obtain the Rct values, which can be seen at FIG. 9. Measurements from at least triplicated samples prepared were used to obtain statistic information.
(§3) The TLR1 sensor was exposed to an E. coli K12 whole-cell buffer solution for 20 minutes. The sensor was then removed, washed thoroughly and characterized in the electrochemical cell measuring the Rct again. The difference in Rct before and after exposure is the response triggered by the target. The same protocol was carried out for all remaining TLRs (TLRs 2-5) to obtain one set of pattern for E. coli K12 (FIGS. 10b to 10e). Multiple sets were investigated for statistical relevance. […]

TLR5 = TLR5 (Mus musculus, UniProt Q9JLF7); assay: TLR multiplex sensor, EIS film resistance before/after exposure (Example 5), TLR5 sensor; assay type: binding; conditions: exposure 20 minutes
Experimental: as §1, §2, §3

rmTLR2 = assay: Label-free TLR2 sensor, EIS detection of Pam3CSK4 (Example 7); assay type: binding, mouse; conditions: for delta Rct %: 20 minutes; for Rct: before immersion 7784
Experimental: TLR sensors were prepared using fresh, cleaned gold electrodes. The electrodes were immersed in a 2 mM 1-lipoic acid n-hydroxysuccinimide ester (LPA) ethanol solution for 48 hours at 277 K. The electrodes were then rinsed thoroughly using absolute ethanol and blown dry under nitrogen before incubation in 200 μg/ml rmTLR1, 200 μg/ml rmTLR2 and 200 μg/ml ‘rmTLR1 and 2’ mixture for 72 hours at 277 K. The rmTLR1 and 2 mixture was prepared by mixing 200 μg/ml rmTLR1 and 200 μg/ml rmTLR2 with a volume ratio of 1:1. The final concentration of each component was 100 μg/ml and the total concentration of the combined TLR protein content was 200 μg/ml. Following the supplier's recommended conditions, all TLRs were prepared in PBS buffer (pH˜7.4). The electrodes were rinsed with an excess volume of Milli-Q water and blown dry under nitrogen. An ethanolamine-tris buffer solution was prepared by dissolving 1.2 g of ethanolamine and 0.121 g of Tris base in 20 mL of water, the pH was adjusted to 8.4 using hydrochloric acid. TLR-immobilized electrodes were incubated in the ethanolamine solution for one hour at room temperature in order to block any remaining unreacted LPA amine sites. The fabricated sensors with immobilized, standalone rmTLR3, rmTLR4/MD-2 and rmTLR5, used for the selectivity test, were prepared using the same protocol described above.
Pam3CSK4 was dissolved in 10 mM HEPES aqueous buffer at pH˜7.4. The blocked rmTLR biosensors were incubated in Pam3CSK4 at various concentrations for 20 minutes. The electrodes were always washed thoroughly with same HEPES buffer (pH˜7.4) after the incubation.
All electrochemical measurements were carried out using a cell with a three-electrode configuration in an enclosed Faraday cage. CV and EIS measurements were completed using a CHI-660b potentiostat (CH Instruments, Austin, Tex.). rmTLR-modified gold electrodes and platinum (Pt) wire were used as the working electrode and the counter electrode, respectively. A reference electrode (Ag/AgCl/3.0M KCl) and a salt bridge, filled with an agar and 1M KNO3 aqueous solution, were inserted to minimize the diffusion of chloride ions into the electrolyte solution. The agar solution was prepared by dissolving 2.0 grams of agar and 10.1 g KNOB in 100 mL of water. The CV and EIS electrolyte was made in a 10 mM HEPES aqueous buffer at pH˜7.4, which consisted of a 5 mM K4Fe(CN)6/5 mM K3Fe(CN)6 as a redox couple with 1M of NaClO4 as the supporting electrolyte. For consistency, the electrochemical measurements were carried out with open-circuit potentials. EIS experiments were conducted in the frequency range of 100,000 to 0.1 Hz with an amplitude of 5 mV. The experimental EIS curves were evaluated to determine the film resistance using ZSimpWin 2.0 software.

Sequence of TLR5 (Q9JLF7 27-859): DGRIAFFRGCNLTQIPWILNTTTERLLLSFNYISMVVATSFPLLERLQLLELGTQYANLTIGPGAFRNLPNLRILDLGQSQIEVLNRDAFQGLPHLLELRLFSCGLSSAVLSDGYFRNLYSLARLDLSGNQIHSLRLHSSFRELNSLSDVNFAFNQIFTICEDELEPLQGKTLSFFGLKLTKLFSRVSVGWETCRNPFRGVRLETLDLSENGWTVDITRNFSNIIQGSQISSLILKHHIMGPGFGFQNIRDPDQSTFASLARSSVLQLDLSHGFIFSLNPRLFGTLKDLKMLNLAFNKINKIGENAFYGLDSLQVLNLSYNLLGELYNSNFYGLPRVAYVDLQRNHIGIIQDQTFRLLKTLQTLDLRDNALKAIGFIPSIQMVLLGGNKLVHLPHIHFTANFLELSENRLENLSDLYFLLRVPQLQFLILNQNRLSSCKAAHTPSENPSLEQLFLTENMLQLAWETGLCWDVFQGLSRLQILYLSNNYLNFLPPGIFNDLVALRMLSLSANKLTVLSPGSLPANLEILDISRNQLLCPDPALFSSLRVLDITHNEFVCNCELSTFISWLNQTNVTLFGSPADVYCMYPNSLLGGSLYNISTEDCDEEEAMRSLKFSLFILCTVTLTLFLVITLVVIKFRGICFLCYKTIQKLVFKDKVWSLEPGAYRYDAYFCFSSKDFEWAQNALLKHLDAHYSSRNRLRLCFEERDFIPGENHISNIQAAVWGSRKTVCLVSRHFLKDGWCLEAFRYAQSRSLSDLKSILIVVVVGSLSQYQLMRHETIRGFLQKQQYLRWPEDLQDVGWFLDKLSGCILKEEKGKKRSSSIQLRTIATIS

## Pam3CSK4
TLR3
  delta Rct %: limited responses
TLR5
  delta Rct %: limited responses
rmTLR2
  limit of detection: 10 µM
rmTLR2; 5 μM
  delta Rct %: not significant
rmTLR2; 10 μM
  delta Rct %: 32±6% and ~30%
rmTLR2; 25 μM
  delta Rct %: 42±18%
rmTLR2; 50 μM
  delta Rct %: 80±32%
rmTLR2; after 5 μM
  Rct: 7355 Ω · cm^2
rmTLR2; after 10 μM
  Rct: 9446 Ω · cm^2
rmTLR2; after 25 μM
  Rct: 12770 Ω · cm^2
rmTLR2; after 50 μM
  Rct: 17610 Ω · cm^2
